{
  "source": "patent US20020128317A1",
  "about": "“Treatment of pathological conditions characterized by an increased IL-1 level” (Laboratories NEGMA, priority 2001, published 2002)",
  "key": {"lipooxygenase pathway": {"tested_on": "lipooxygenase pathway", "assay": "Inhibitory effect on lipooxygenase pathway", "type": "biochemical", "description": "(§1) This unique mechanism of action of diacerein was thought to explain, at least in part, its efficacy in the symptomatic treatment of osteoarthritis."}, "cyclooxygenase pathway": {"tested_on": "cyclooxygenase pathway", "assay": "Inhibitory effect on cyclooxygenase pathway", "type": "biochemical", "description": "as §1"}, "IL-1 [1]": {"tested_on": "IL-1", "assay": "IL-1 inhibition, several studies in vitro and with animal models of osteoarthritis", "description": "as §1"}, "[2]": {"tested_on": "prostaglandin biosynthesis", "assay": "Inhibition of prostaglandin biosynthesis", "type": "biochemical", "description": "as §1"}, "IL-1 [3]": {"tested_on": "IL-1", "assay": "Effect of administration on IL-1 levels in subjects", "type": "in vivo", "settings": "subjects with abnormally elevated IL-1 and TNF-α levels"}, "cartilage degradation": {"tested_on": "cartilage degradation", "assay": "Effect on cartilage degradation in osteoarthritis treatment", "type": "in vivo", "settings": "prescribed treatment protocol"}, "[4]": {"assay": "Gastric safety during osteoarthritis treatment", "type": "in vivo", "description": "as §1"}, "TNF-α": {"tested_on": "TNF-α", "assay": "Effect of administration on TNF-α levels in subjects", "type": "in vivo", "settings": "subjects with abnormally elevated IL-1 and TNF-α levels"}, "phospholipase pathway": {"tested_on": "phospholipase pathway", "assay": "Inhibitory effect on phospholipase pathway", "type": "biochemical", "description": "as §1"}, "[5]": {"assay": "Stability in aqueous solution", "type": "physicochemical", "description": "(§2) Preferably the diacerein or rhein is administered orally in the conventional solid unit dosage form."}, "Solubility": {"assay": "Solubility", "type": "physicochemical", "description": "as §2"}},
  "data": [
    {"substance": "diacerein", "values": [
      {"measurement": "inhibitory effect on the lipooxygenase pathway", "setting": "lipooxygenase pathway", "result": "no inhibitory effect was detected"},
      {"measurement": "inhibitory effect on the cyclooxygenase pathway", "setting": "cyclooxygenase pathway", "result": "no inhibitory effect was detected"},
      {"measurement": "IL-1 inhibition", "setting": "IL-1 [1]", "result": "is an IL-1 inhibitor"},
      {"measurement": "inhibition of prostaglandin biosynthesis", "setting": "[2]", "result": "neither diacerein nor rhein inhibit"},
      {"measurement": "effect on IL-1 levels", "setting": "IL-1 [3]", "result": "inhibitory effect"},
      {"measurement": "effect on cartilage degradation", "setting": "cartilage degradation", "result": "significant effect on cartilage degradation"},
      {"measurement": "gastric safety profile", "setting": "[4]", "result": "excellent gastric safety profile"},
      {"measurement": "effect on TNF-α levels", "setting": "TNF-α", "result": "inhibitory effect"},
      {"measurement": "inhibitory effect on the phospholipase pathway", "setting": "phospholipase pathway", "result": "no inhibitory effect was detected"},
      {"measurement": "stability in water", "setting": "[5]", "result": "may not be sufficiently stable"},
      {"measurement": "solubility in alcohol", "setting": "Solubility; alcohol", "result": "virtually insoluble"},
      {"measurement": "solubility in water", "setting": "Solubility; water", "result": "virtually insoluble"}
    ]}
  ]
}
